According to patent EP3046573B1, “AMYLIN ANALOGUES” (Zealand Pharma A/S, priority 2013, dated 2015):
Numbered stars: 1 amine (or outer) side, 2 acyl side, 3 side chain; on linkers, the order of the positions; unused ones are H or OH. Bridge positions count the residues as written; N and C are the ends. Square brackets hold non-standard residues; d marks the D form. Peptide text beside a SMILES is read from it. * marks the point of attachment. C20 diacid = O=C(O)CCCCCCCCCCCCCCCCCCC(=O)*; γGlu = O=C(O)[C@H](CCC(=O)[*:2])N[*:1]; NMeI = CC[C@H](C)[C@H](NC)C(=O)O; Sar = CNCC(=O)O

How the values were obtained:
[1] = molecular target: T1, human calcitonin receptor (hCTR2) (Homo sapiens, UniProt P30988); assay: hCTR2 assay: induction of cAMP (AlphaScreen cAMP Assay kit) in COS7 cells expressing hCTR2; format: cell-based
T1 construct: expressed in transfected cells
T1 sequence (P30988 25-474): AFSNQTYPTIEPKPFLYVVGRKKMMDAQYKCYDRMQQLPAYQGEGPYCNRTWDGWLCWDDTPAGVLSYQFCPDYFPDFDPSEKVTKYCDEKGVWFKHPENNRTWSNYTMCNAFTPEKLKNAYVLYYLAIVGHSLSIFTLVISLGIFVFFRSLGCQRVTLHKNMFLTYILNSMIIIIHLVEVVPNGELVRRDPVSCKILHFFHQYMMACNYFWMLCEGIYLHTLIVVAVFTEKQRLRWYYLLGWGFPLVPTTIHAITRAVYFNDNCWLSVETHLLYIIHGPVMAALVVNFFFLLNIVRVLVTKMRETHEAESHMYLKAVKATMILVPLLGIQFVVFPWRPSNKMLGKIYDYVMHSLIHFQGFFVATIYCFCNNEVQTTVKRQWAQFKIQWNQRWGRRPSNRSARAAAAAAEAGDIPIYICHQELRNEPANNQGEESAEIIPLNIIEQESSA
Procedure, shortened: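 Stable hCTR2 clone in RAMP-naive COS7 cells; peptides titrated in Tyrode buffer (pH 7.4) with 100 µM IBMX, 0.1% casein, 15 min at 37° C. cAMP read by AlphaScreen after lysis; EC50 and efficacy relative to pramlintide from 4PL fit.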

[2] = Solubility assessment (turbidity absorbance at 325 nm); format: physicochemical; details: stock 2 mg/ml diluted 1:1, ambient temperature (typically 25°C), n=1
Procedure, shortened: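 Peptide stock (2 mg/ml, water pH 2.5) diluted 1:1 into 100 mM acetate (pH 4.0, 5.0), histidine (pH 6.0, 7.0) or phosphate (pH 6.0–7.5) buffer; absorbance at 325 nm read at about 25°C, n=1. A325 ≤ 0.02 taken as solubility ≥ 1 mg/ml.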

[3] = molecular target: T2, human amylin receptor 3 (hAMYR3) consisting of hCTR2 co-expressed with human Receptor Activity Modifying Protein 3 (hRAMP3) (Homo sapiens, UniProt O60896+P30988); assay: hAMYR3 assay: induction of cAMP (AlphaScreen cAMP Assay kit) in COS7 cells expressing hAMYR3; format: cell-based; details: cAMP induction in COS7 cells expressing hAMYR3; average of a minimum of 3 determinations; read-out: hAMY R3 EC50
T2 construct: expressed in transfected cells
T2 sequence (P30988 25-474): T1 sequence (P30988 25-474)
T2 sequence (O60896 24-148 partner): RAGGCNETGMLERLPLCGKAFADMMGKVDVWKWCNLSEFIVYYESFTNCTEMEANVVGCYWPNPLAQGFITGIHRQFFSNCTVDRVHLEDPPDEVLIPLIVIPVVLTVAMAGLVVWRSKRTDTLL
Procedure, shortened: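 Stable COS7 clone co-expressing hCTR2 and hRAMP3, stimulated 15 min at 37° C with increasing peptide in Tyrode buffer pH 7.4 with 100 µM IBMX and 0.1% casein. cAMP measured by AlphaScreen after lysis; EC50 and % efficacy versus pramlintide from 4PL fit.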

[4] = Assessment of physical stability: fibril formation detected with Thioflavin T (ThT), lag-time; format: physicochemical; details: 1 mg/ml peptide, 40 µM ThT, FND = Fibrillation not detected
Protocol: Solutions containing (i) 1 mg/ml of test peptide, 40 µM ThT and 50 mM phosphate (Ph) buffer (pH 7.0), (ii) 1 mg/ml of test peptide, 40 µM ThT and 50 mM histidine (His) buffer (pH 7.0), and (iii) 1 mg/ml of test peptide, 40 µM ThT and 50 mM acetate (Ac) buffer (pH 4.0), were loaded in a 96-well black fluorescence plate (clear bottom) in triplicate. Data were collected at fixed intervals of 10 min, each preceded by 300 s of automixing (agitation), over a period of 96 hours at 40° C. Physical stability, expressed as lag-time of fibril formation (in hours), was defined as the intersection between two linear regressions representing the initial stable phase and the growth phase.

CC[C@H](C)[C@@H](C(=O)N[C@@H](CC(C)C)C(=O)N1CCC[C@H]1C(=O)N1CCC[C@H]1C(=O)N[C@H](C(=O)N[C@@H](CC(N)=O)C(=O)N[C@H](C(=O)NCC(=O)N[C@@H](CO)C(=O)N[C@@H](CC(N)=O)C(=O)N[C@H](C(=O)N1CCC[C@H]1C(N)=O)[C@@H](C)O)C(C)C)[C@@H](C)O)N(C)C(=O)[C@@H]1CCCN1C(=O)CN(C)C(=O)[C@H](Cc1ccccc1)NC(=O)[C@H](CC(N)=O)NC(=O)[C@H](CC(N)=O)NC(=O)[C@H](CO)NC(=O)[C@H](CO)NC(=O)[C@H](Cc1c[nH]cn1)NC(=O)[C@H](Cc1c[nH]cn1)NC(=O)[C@H](CC(C)C)NC(=O)[C@H](Cc1ccccc1)NC(=O)[C@H](CCC(=O)O)NC(=O)[C@H](C)NC(=O)[C@H](CC(C)C)NC(=O)[C@H](CCCNC(=N)N)NC(=O)[C@H](CCC(N)=O)NC(=O)[C@@H](NC(=O)[C@H](C)NC(=O)[C@@H]1CSSC[C@H](NC(=O)[C@H](CCCNC(=N)N)NC(=O)CC[C@H](NC(=O)CCCCCCCCCCCCCCCCCCC(=O)O)C(=O)O)C(=O)N[C@@H](CC(N)=O)C(=O)N[C@@H]([C@@H](C)O)C(=O)N[C@@H](C)C(=O)N[C@@H]([C@@H](C)O)C(=O)N1)[C@@H](C)O [Compound 175, [19CD]-isoGlu-RC()NTATC()ATQRLAEFLHHSSNNF-Gly(Me)-P-Ile(Me)-LPPTNVGSNTP-NH2] ({C20 diacid-γGlu}-RCNTATCATQRLAEFLHHSSNNF[Sar]P[NMeI]LPPTNVGSNTP-NH2; disulfide 2-7)
EC50 [1]: 0.2 nM | Solubility, Acetate buffer pH 4 ([2]; 100 mM acetate buffer pH 4.0): SS (SS indicates solubility ≥ 1mg/ml) | Solubility, Acetate buffer pH 5 ([2]; 100 mM acetate buffer pH 5.0): SS (SS indicates solubility ≥ 1mg/ml) | Solubility, Histidine buffer pH 6 ([2]; 100 mM histidine buffer pH 6.0): SS (SS indicates solubility ≥ 1mg/ml) | Solubility, Histidine buffer pH 7 ([2]; 100 mM histidine buffer pH 7.0): SS (SS indicates solubility ≥ 1mg/ml) | Solubility, Phosphate buffer pH 6 ([2]; 100 mM phosphate buffer pH 6.0): SS (SS indicates solubility ≥ 1mg/ml) | Solubility, Phosphate buffer pH 7 ([2]; 100 mM phosphate buffer pH 7.0): SS (SS indicates solubility ≥ 1mg/ml) | Solubility, Phosphate buffer pH 7.5 ([2]; 100 mM phosphate buffer pH7.5): II (II indicates solubility ≤ 1 mg/ml) | EC50 [3]: 0.2 nM | Fibrillation lag time (hours) pH 4.0 (Ac) ([4]; 50 mM acetate buffer pH 4.0, 96 hours at 40°C): FND | Fibrillation lag time (hours) pH 7.0 (Ph) ([4]; 50 mM phosphate buffer pH 7.0, 96 hours at 40°C): FND
